Results as given in US20130338190A1, “PHARMACEUTICALLY ACCEPTABLE SALT OF (E)-N-[4-[[3-CHLORO-4-(2-PYRIDYLMETHOXY)PHENYL]AMINO]-3-CYANO-7-ETHOXY-6-QUINOLYL]-3-[(2R)-1-METHYLPYRROLIDIN-2-YL]PROP-2-ENAMIDE, PREPARATION METHOD THEREOF, AND MEDICAL USE THEREOF” (priority 2011, published 2013).
Converted amounts (≈) assume the structure as drawn. Read-outs that look alike come from different tables or passages of the source.

Legend:
[1] = Pharmacokinetics assay in rats (LC/MS/MS of plasma); type: in vivo, Sprague Dawley (SD) rats; details: rat; for Vd/F: read-out: Vz/F
Description: The rats were used as test animals. The compound of formula (I) and other salts thereof were administrated intragastrically, and a maleate salt of the compound of formula (I) was injected into the tail vein to determine the drug concentration in plasma at different time points by an LC/MS/MS method. The pharmacokinetic behavior, characteristics and the oral absolute bioavailability of the present compounds were studied and evaluated in rats. […] 28 healthy adult Sprague Dawley (SD) rats, half male and half female, were purchased from SINO-BRITSH SIPPR/BK LAB. ANIMAL LTD., CO, License number: SCXK (Shanghai) 2008-0016, and divided into 7 groups (4 rats in each group). The intravenous injection group: a suitable amount of compounds was weighed, dissolved in DMSO and diluted with normal saline to the final volume. […] healthy adult SD rats, half male and half female, were divided into 7 groups (4 rats in each group). […] For the intravenous injection group, blood samples (0.2 mL) were taken from orbital sinus before administration and at 2 min, 15 min, 30 min, 1.0 […] and 36.0 h after administration, stored in heparinized tubes and centrifuged for 10 minutes at 3,500 rpm to separate blood plasma. The plasma samples were stored at -20° C. For the intragastrical administration group, blood samples were taken before administration and at 0.5, 1.0, 2.0, 3.0, 4.0, 6.0, 8.0, 12.0, 24.0 and 36.0 hours after administration. The method to treat the samples was the same as with the intravenous injection group. The rats were fed 2 hours after administration.

Solubility assay [2] = type: physicochemical; details: for solubility: 0.1 M hydrochloric acid, simulated gastric fluid
[3] = tested on: human epidermoid carcinoma A431 cells, which have high expression of EGFR; experiment: EGFR cell proliferation inhibition assay (SRB, 72 hours); type: cell-based; details: read-out: IC50 (EGFR/A431)
Description: The activity is represented by the IC50 value. The general procedures of the assay were as follows: the cancer cells A431 highly expressing EGFR were chosen and seeded in a 96-well cell culture plate at a suitable density (e.g., 5000 cells/mL medium). The cells were then incubated in a carbon dioxide incubator until they reached 85% confluence. Then, the cell culture medium was replaced by fresh medium containing the test compounds with serial dilutions (general 6 to 7 concentrations). The cells were put back in the incubator and cultured continuously for 72 hours. The activity of the test compounds for inhibiting the cell proliferation was determined by using a Sulforhodamine B (SRB) method. IC50 values were calculated by the rate of inhibition at various concentrations of the test compounds.

Solubility assay [4] = type: physicochemical
Description: According to the conventional solubility measurement, the solubility of a compound of formula (I) and salts thereof was determined in three different systems: water, physiological saline and methanol.

HER-2 kinase = HER-2 kinase (Homo sapiens, UniProt P04626); experiment: HER-2 kinase activity assay (time-resolved fluorescence); type: biochemical; details: table of the HER-2 kinase activity assay; human-derived recombinant HER-2 kinase, 20 μM ATP, 25° C., 45 minutes; read-out: IC50 (HER-2/SK-BR-3)
Description: The in vitro HER-2 kinase activity was tested by the following assay.
The following assay was used to determine the activity of the compounds of the present invention for inhibiting HER-2 kinase. The half maximal inhibitory concentration IC50 (the concentration of the test compound showing 50% inhibition of the enzyme activity) of each compound was determined by incubating several different concentrations of the test compounds with a specific enzyme and substrate. […] The HER-2 kinase activity was determined by using a time-resolved fluorescence method.

[5] = tested on: human carcinoma SK-BR-3 cells, which have high expression of HER-2; experiment: HER-2 cell activity assay (SRB, 96 hours); type: cell-based
Source text: The following in vitro assay was to determine the activity of the compounds of the present invention for inhibiting the proliferation of human carcinoma SK-BR-3 cells, which have high expression of HER-2.
The following in vitro assay was to determine the activity of the test compounds for inhibiting the angiogenesis and proliferation of cancer cells, which have high expression of HER-2. The activity is represented by the IC50 value. The general procedure of the assay was as follows: the cancer cells line SK-BR-3 highly expressing HER-2 was chosen and the cells were seeded in a 96-well cell culture plate at a suitable density. The cells then were incubated in a carbon dioxide incubator until they reached 60% confluence. Then, the cell culture medium was replaced by fresh medium with the test compounds at various concentrations (6 to 7 concentrations). The cells were put back in the incubator and cultured continuously for 96 hours. The activity of the test compounds for inhibiting the cell proliferation was determined by using a Sulforhodamine B (SRB) method. IC50 values of test cells were calculated by the rate of inhibition at various concentrations of the test compounds.

[6] = both sexes, Sprague-Dawley, plasma, iv, 25 mg/kg, vein (tail vein injection)
[7] = both sexes, Sprague-Dawley, plasma, iv, 25 mg/kg, vein (tail vein injection), read-out: AUC0-t
[8] = both sexes, Sprague-Dawley, plasma, iv, 25 mg/kg, vein (tail vein injection), read-out: MRT
[9] = both sexes, Sprague-Dawley, plasma, po, 25 mg/kg, gavage
[10] = both sexes, Sprague-Dawley, plasma, po, 25 mg/kg, gavage, read-out: AUC0-t
[11] = both sexes, Sprague-Dawley, plasma, po, 25 mg/kg, gavage, read-out: Cmax
[12] = both sexes, Sprague-Dawley, plasma, po, 25 mg/kg, gavage, read-out: MRT
[13] = vein (tail vein injection), 25 mg/kg, dimaleate
[14] = physiological saline, saline or isotonic, physiological saline, read-out: Solubility Value, Physiological saline
[15] = vein (tail vein injection), 25 mg/kg
[16] = water, read-out: Solubility Value, Water
[17] = gavage, 25 mg/kg, dimethanesulfonate
[18] = vein (tail vein injection), 25 mg/kg, dimethanesulfonate
[19] = gavage, 25 mg/kg, trimethanesulphonate
[20] = vein (tail vein injection), 25 mg/kg, trimethanesulphonate

Sequence of HER-2 kinase (P04626 23-1255): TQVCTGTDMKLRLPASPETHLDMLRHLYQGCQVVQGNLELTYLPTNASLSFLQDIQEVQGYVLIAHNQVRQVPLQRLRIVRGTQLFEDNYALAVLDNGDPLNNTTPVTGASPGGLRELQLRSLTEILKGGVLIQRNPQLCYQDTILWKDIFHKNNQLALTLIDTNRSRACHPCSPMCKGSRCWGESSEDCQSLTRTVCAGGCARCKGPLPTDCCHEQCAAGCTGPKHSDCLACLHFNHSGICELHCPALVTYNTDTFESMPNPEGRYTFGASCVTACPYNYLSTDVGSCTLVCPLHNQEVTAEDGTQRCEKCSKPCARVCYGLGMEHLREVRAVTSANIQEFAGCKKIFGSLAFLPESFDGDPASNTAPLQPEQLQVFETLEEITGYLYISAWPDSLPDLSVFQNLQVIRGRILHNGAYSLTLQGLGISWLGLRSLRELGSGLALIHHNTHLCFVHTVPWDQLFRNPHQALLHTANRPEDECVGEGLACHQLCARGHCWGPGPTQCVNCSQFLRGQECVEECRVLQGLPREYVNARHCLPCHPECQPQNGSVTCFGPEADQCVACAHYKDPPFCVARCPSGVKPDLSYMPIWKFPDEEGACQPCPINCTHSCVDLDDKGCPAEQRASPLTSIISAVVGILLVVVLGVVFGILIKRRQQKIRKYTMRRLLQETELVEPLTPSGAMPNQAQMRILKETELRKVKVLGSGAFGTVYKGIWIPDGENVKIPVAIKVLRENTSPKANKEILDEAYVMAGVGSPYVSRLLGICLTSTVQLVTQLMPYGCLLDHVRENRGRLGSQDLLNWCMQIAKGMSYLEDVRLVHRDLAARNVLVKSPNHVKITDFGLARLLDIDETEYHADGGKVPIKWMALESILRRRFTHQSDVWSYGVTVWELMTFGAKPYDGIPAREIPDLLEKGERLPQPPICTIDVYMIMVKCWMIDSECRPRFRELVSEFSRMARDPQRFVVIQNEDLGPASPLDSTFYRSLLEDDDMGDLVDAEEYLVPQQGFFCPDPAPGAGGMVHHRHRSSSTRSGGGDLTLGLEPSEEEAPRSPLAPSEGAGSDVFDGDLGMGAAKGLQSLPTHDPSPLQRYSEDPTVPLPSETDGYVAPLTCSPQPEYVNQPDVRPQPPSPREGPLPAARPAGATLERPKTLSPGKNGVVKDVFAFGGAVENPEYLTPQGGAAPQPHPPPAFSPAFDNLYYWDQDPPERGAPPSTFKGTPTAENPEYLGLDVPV

CCOc1cc2ncc(C#N)c(Nc3ccc(OCc4ccccn4)c(Cl)c3)c2cc1NC(=O)/C=C/[C@H]1CCCN1C.CS(=O)(=O)O [Example 4, (E)-N-[4-[[3-chloro-4-(2-pyridylmethoxy)phenyl]amino]-3-cyano-7-ethoxy-6-quinolyl]-3-[(2R)-1-methylpyrrolidin-2-yl]prop-2-enamide methanesulfonate]
half-life [1, 6]: 3.77 ± 0.22 h
AUC(0-t) [1, 7]: 146 ± 40.4 µg·h/mL
MRT [1, 8]: 5.46 ± 0.48 h
CL/F [1, 9]: 5.33 mL/min/kg
half-life [1, 9]: 3.67 ± 0.83 h
AUC(0-t) [1, 10]: 92.3 ± 37 µg·h/mL
Cmax [1, 11]: 6920 ± 1820 ng/mL
MRT [1, 12]: 8.4 ± 0.65 h
Vd/F [1, 9]: 1.6 ± 0.54 L/kg
F (%) ([1]; oral absolute bioavailability, 25 mg/kg (calculated by the base part), methanesulfonate): 63.2%

CCOc1cc2ncc(C#N)c(Nc3ccc(OCc4ccccn4)c(Cl)c3)c2cc1NC(=O)/C=C/[C@H]1CCCN1C.O=C(O)/C=C\C(=O)O [Example 2, (E)-N-[4-[[3-chloro-4-(2-pyridylmethoxy)phenyl]amino]-3-cyano-7-ethoxy-6-quinolyl]-3-[(2R)-1-methylpyrrolidin-2-yl]prop-2-enamide dimaleate]
Solubility Value, 0.1M Hydrochloric acid (Solubility assay [2]; dimaleate): 54.88 mg/mL
Solubility Value, Physiological saline (Solubility assay [2]; dimaleate): 0.36 mg/mL
IC50 ([3]; Homo sapiens, A-431, 72 h): 0.031 µM
Solubility Value, Water (Solubility assay [4]; water, dimaleate): 1.52 mg/mL
IC50 (HER-2 kinase): 0.028 µM
CL/F [1, 9]: 4.83 mL/min/kg
half-life [1, 9]: 4.45 ± 1.63 h
AUC(0-t) [1, 10]: 116 ± 67.2 µg·h/mL
Cmax [1, 11]: 10200 ± 4410 ng/mL
MRT [1, 12]: 8.03 ± 0.99 h
Vd/F [1, 9]: 1.84 ± 1.19 L/kg
bioavailability ([1]; both sexes, Sprague-Dawley, plasma, po, 25 mg/kg, oral absolute bioavailability, 25 mg/kg (calculated by the base part)): 48.3%
MRT [1, 13]: 2.96 ± 0.47 h
t1/2 [1, 13]: 3.74 ± 1.20 h

CCOc1cc2ncc(C#N)c(Nc3ccc(OCc4ccccn4)c(Cl)c3)c2cc1NC(=O)/C=C/[C@H]1CCCN1C.O=C(O)/C=C\C(=O)O [Example 1, (E)-N-[4-[[3-chloro-4-(2-pyridylmethoxy)phenyl]amino]-3-cyano-7-ethoxy-6-quinolyl]-3-[(2R)-1-methylpyrrolidin-2-yl]prop-2-enamide maleate]
Solubility Value, 0.1M Hydrochloric acid (Solubility assay [2]; maleate): 23.33 mg/mL
Solubility Value, Water (Solubility assay [2]; water, maleate): 12.49 mg/mL
solubility (Solubility assay [4]; [14]): 0.19 mg/mL
IC50 (HER-2 kinase): 0.053 µM
half-life [1, 6]: 4.92 ± 0.6 h
AUC(0-t) [1, 7]: 222 ± 77 µg·h/mL
MRT [1, 8]: 5.5 ± 0.99 h
AUC(0-t) ([1]; gavage, 25 mg/kg, maleate): 104.58 ± 56.54 µg·h/mL
Cmax ([1]; gavage, 25 mg/kg, maleate): 8990 ± 4870 ng/mL
MRT ([1]; gavage, 25 mg/kg, maleate): 8.93 ± 1.39 h
t1/2 ([1]; gavage, 25 mg/kg, maleate): 4.4 ± 1.3 h
F (%) ([1]; oral absolute bioavailability, 25 mg/kg (calculated by the base part), maleate): 47.1%
IC50 ([5]; read-out: IC50 (HER-2/SK-BR-3), maleate): 0.064 µM

CCOc1cc2ncc(C#N)c(Nc3ccc(OCc4ccccn4)c(Cl)c3)c2cc1NC(=O)/C=C/[C@H]1CCCN1C [Example 1f, (E)-N-[4-[[3-chloro-4-(2-pyridylmethoxy)phenyl]amino]-3-cyano-7-ethoxy-6-quinolyl]-3-[(2R)-1-methylpyrrolidin-2-yl]prop-2-enamide]
Solubility Value, 0.1M Hydrochloric acid (Solubility assay [2]): 1.43 mg/mL (≈ 2450 µM)
solubility in conventional solvents (in words) (Solubility assay [2]; conventional solvents): poorly soluble
Solubility Value, Physiological saline (Solubility assay [2]): 0.0026 mg/mL
Solubility Value, Water (Solubility assay [4]; water): 0.008 mg/mL (≈ 13.7 µM)
IC50 (HER-2 kinase): 0.065 µM
AUC(0-t) ([1]; gavage, 25 mg/kg): 52.81 ± 23.59 µg·h/mL
F (%) ([1]; oral absolute bioavailability, 25 mg/kg (calculated by the base part)): 42.2%
AUC(0-t) [1, 15]: 125.4 ± 38.95 µg·h/mL
MRT [1, 15]: 4.22 ± 0.71 h
t1/2 [1, 15]: 5.25 ± 2.01 h
IC50 ([5]; Homo sapiens, SK-BR-3, 96 h, read-out: IC50 (HER-2/SK-BR-3)): 0.059 µM

CCOc1cc2ncc(C#N)c(Nc3ccc(OCc4ccccn4)c(Cl)c3)c2cc1NC(=O)/C=C/[C@H]1CCCN1C.O=C(O)C[C@H](O)C(=O)O [Example 3, (E)-N-[4-[[3-chloro-4-(2-pyridylmethoxy)phenyl]amino]-3-cyano-7-ethoxy-6-quinolyl]-3-[(2R)-1-methylpyrrolidin-2-yl]prop-2-enamide L-malate]
solubility (Solubility assay [2]): 12.7 mg/mL
IC50 ([3]; A431 cells, 72 hours, SRB, L-malate): 0.029 µM
solubility (Solubility assay [4]; [14]): 0.08 mg/mL
solubility (Solubility assay [4]; [16]): 17.2 mg/mL
IC50 (HER-2 kinase): 0.071 µM
IC50 ([5]; L-malate, read-out: IC50 (HER-2/SK-BR-3)): 0.056 µM

CCOc1cc2ncc(C#N)c(Nc3ccc(OCc4ccccn4)c(Cl)c3)c2cc1NC(=O)/C=C/[C@H]1CCCN1C.CS(=O)(=O)O [Example 5, (E)-N-[4-[[3-chloro-4-(2-pyridylmethoxy)phenyl]amino]-3-cyano-7-ethoxy-6-quinolyl]-3-[(2R)-1-methylpyrrolidin-2-yl]prop-2-enamide dimethanesulfonate]
AUC(0-t) [1, 17]: 81.53 ± 40.46 µg·h/mL
Cmax [1, 17]: 7880 ± 2510 ng/mL
MRT [1, 17]: 7.95 ± 0.61 h
t1/2 [1, 17]: 3.46 ± 0.56 h
F (%) ([1]; oral absolute bioavailability, 25 mg/kg (calculated by the base part), dimethanesulfonate): 72.1%
AUC(0-t) [1, 18]: 112.84 ± 62.1 µg·h/mL
MRT [1, 18]: 4.2 ± 0.99 h
t1/2 [1, 18]: 3.12 ± 0.37 h

CCOc1cc2ncc(C#N)c(Nc3ccc(OCc4ccccn4)c(Cl)c3)c2cc1NC(=O)/C=C/[C@H]1CCCN1C.O=C(O)CCC(=O)O [Example 8, (E)-N-[4-[[3-chloro-4-(2-pyridylmethoxy)phenyl]amino]-3-cyano-7-ethoxy-6-quinolyl]-3-[(2R)-1-methylpyrrolidin-2-yl]prop-2-enamide succinate]
solubility (Solubility assay [2]): 32.4 mg/mL
IC50 ([3]; A431 cells, 72 hours, SRB, succinate): 0.015 µM
solubility (Solubility assay [4]; [14]): 3.32 mg/mL
solubility (Solubility assay [4]; [16]): 22.4 mg/mL
IC50 (HER-2 kinase): 0.053 µM
IC50 ([5]; succinate, read-out: IC50 (HER-2/SK-BR-3)): 0.078 µM

CCOc1cc2ncc(C#N)c(Nc3ccc(OCc4ccccn4)c(Cl)c3)c2cc1NC(=O)/C=C/[C@H]1CCCN1C.CS(=O)(=O)O [Example 6, (E)-N-[4-[[3-chloro-4-(2-pyridylmethoxy)phenyl]amino]-3-cyano-7-ethoxy-6-quinolyl]-3-[(2R)-1-methylpyrrolidin-2-yl]prop-2-enamide trimethanesulphonate]
AUC(0-t) [1, 19]: 81.72 ± 22.16 µg·h/mL
Cmax [1, 19]: 6270 ± 1580 ng/mL
MRT [1, 19]: 8.59 ± 0.22 h
t1/2 [1, 19]: 4.15 ± 0.09 h
F (%) ([1]; oral absolute bioavailability, 25 mg/kg (calculated by the base part), trimethanesulphonate): 50.5%
AUC(0-t) [1, 20]: 162.28 ± 55.65 µg·h/mL
MRT [1, 20]: 4.94 ± 0.58 h
t1/2 [1, 20]: 5.27 ± 0.29 h
